Experimental findings from article PMC11111691, “Cystine-knot peptide inhibitors of HTRA1 bind to a cryptic pocket within the active site region” (Nature Communications, 2024) are described below.

Positions of bridges follow the written chain, without caps; N, C: chain ends. Residues, ends and D or L forms follow the SMILES beside them.

In one data set the target is T1, HTRA1^FL (Homo sapiens, UniProt Q92743).
T1 construct: Human full-length HTRA1 (HTRA1^FL, Q23-P480); made in house; host or cells: Trichoplusia ni cells
In words: HTRA1^FL enzyme inhibition assay with synthetic substrate H2-OPT. It is filed as biochemical. An outline of the steps: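 CKP or 7mer-ABP preincubated with protease at 37 °C (CKP 60 min; 7mer-ABP 15 min, 2 µM selectivity), then 5 µM Mca-IRRVSYSFK(Dnp)K added in TNC buffer, 0.25% DMSO. Cleavage read kinetically at 37 °C (ex 328/em 393 nm); initial rates as % DMSO control, IC50 by 4PL fit.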

For the next data set, the system named is HeLa cells. The data set can be described thus: Cell toxicity assay (CellTiter-Glo), HeLa. It is filed as cell-based. As to the method: reduction at the highest CKP concentration of 50 µM after 72 h (see results below). The absence of cell toxicity is likely due to the inability of the CKPs to penetrate cell membranes, which was experimentally determined in response to another reviewer. Due to space limitations we have not […]
Protocol of cell toxicity assay (Figure above):
HeLa cells or C32 melanoma cells were passaged in DMEM media supplemented with 10% FBS, 1% pen-strep and 1x Glutamax using standard culture conditions (5% CO2, 90% humidity at 37°C). At approximately 95% confluence cells were trypsinized, seeded onto 96-well plates (Corning) at 10,000 cells/well and grown for 24 h. Cells were then incubated with the CKPs 3B3, 1D3-ENI and 1G10-ENI (0, 0.6, 1.9, 5.6, 16.7 and 50 µM) at 37°C for 24 h or for 72h. As a positive control we used staurosporine (STS; 1µM). Cell viability was measured using the CellTiter-Glo luminescent cell viability assay (Promega) on an Envision Multilabel plate reader. Average of at least three independent experiments ± S.D. were plotted in Prism 10. Two-way ANOVA was performed on each dataset and compared to no drug samples and no significant viability reductions were observed, except for some treatments at the […]
In general terms: Cellular ATP, detected with luciferase, serves as a proxy for viable cell number.

The next data set addresses T2, HTRA4^PD/PDZ-Y200A (Homo sapiens, UniProt P83105, Y200A).
T2 construct: HTRA4 (HTRA4^PD/PDZ; G153-N476); made in house; host or cells: E. coli
T2 sequence (P83105 153-476 Y200A): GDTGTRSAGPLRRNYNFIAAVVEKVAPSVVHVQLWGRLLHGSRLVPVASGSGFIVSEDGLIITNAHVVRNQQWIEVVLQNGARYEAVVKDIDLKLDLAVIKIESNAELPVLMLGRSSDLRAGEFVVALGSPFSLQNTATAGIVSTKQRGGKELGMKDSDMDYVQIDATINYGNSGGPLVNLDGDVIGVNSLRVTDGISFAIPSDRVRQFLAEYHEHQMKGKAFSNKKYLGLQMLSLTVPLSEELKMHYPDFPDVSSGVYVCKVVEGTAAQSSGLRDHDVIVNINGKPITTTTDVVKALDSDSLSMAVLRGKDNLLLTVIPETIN
In words: H2-OPT enzyme assay, chimeric HTRA4^PD/PDZ-Y200A. It is filed as biochemical. The settings on record: 1 µM HTRA4^PD/PDZ-Y200A, 10 µM 3B3, H2-OPT; read-out: Inhibition (reduction of enzyme activity) of HTRA4^PD/PDZ-Y200A. The text has this:
The protease domains of human HTRA1 (HTRA1^PD; D161-K379) and mouse HTRA1 (mHTRA1^PD; D161-K379) contained an N-terminal His6 tag followed by a TEV protease cleavage sequence as described recently. The chimeric HTRA1^PD-A202Y was made by introducing an A202Y mutation to the human HTRA1^PD construct. […] The protease-PDZ domains of human HTRA3 (HTRA3^PD/PDZ; L130-M453) and HTRA4 (HTRA4^PD/PDZ; G153-N476) contained a C-terminal thrombin cleavage sequence followed by a His6 tag[44]. The chimeric HTRA4^PD/PDZ-Y200A was made by introducing a Y200A mutation to the HTRA4^PD/PDZ construct. These constructs were expressed in E. coli and purified as described[38],[44],[47]. […] The purity of the trimeric HTRA proteins after size exclusion chromatography was assessed by SDS-PAGE and LC/MS. […]
Assays with the fluorescence-quenched synthetic substrate Mca-IRRVSYSFK(Dnp)K (H2-OPT)[38],[60] were carried out essentially as described. […] The kinetics of substrate cleavage was measured at 37 °C on a SpectraMax M5 microplate reader with excitation of 328 nm and emission of 393 nm. The determined initial rates of cleavage were expressed as percent of control (DMSO control) after subtracting the baseline rates (without enzyme). IC50 values were determined by Sigmoidal 4PL modeling of multiple data points from serial dilutions of CKPs using Prism 9 software (GraphPad). […]

The next data set has as its system MDCK monolayer. The data set can be described thus: MDCK trans-well cell permeability assay. It is filed as in vitro ADME, canine. Conditions: MDCK trans-well, apical to basolateral, up to 50 µM, 16 h, mass spectrometry.

T1 sequence (Q92743 23-480): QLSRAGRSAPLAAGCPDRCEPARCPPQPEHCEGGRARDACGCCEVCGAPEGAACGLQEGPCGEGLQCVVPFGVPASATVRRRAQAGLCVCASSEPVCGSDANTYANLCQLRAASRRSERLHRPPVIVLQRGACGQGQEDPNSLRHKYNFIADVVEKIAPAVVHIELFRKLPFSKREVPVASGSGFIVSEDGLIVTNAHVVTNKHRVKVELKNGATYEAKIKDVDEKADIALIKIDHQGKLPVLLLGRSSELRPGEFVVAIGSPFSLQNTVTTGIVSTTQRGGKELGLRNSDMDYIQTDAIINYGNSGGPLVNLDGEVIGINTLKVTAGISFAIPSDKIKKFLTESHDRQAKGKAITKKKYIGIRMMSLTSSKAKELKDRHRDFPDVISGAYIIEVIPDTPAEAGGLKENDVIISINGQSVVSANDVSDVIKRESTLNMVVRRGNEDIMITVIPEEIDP
Experimental for MDCK monolayer: We carried out a cell permeability study using a MDCK trans-well assay, which is commonly
used at Genentech for permeability screening of compounds . This assay measures the flux of test
compound (Papp, apparent permeability) across a MDCK monolayer from the apical to the
basolateral compartment over a 16 h period.
sensitive mass spectrometry method .
10x10-6 cm/s and compounds with Papp values of <1x10-6 cm/s are considered to be of low
Protocol of permeability assay:
Experiments were carried out as described (Chen et al. Evaluating the utility of canine Mdr1 knockout
Madin-Darby canine kidney I cells in permeability screening and efflux substrate determination, Mol
Cells were seeded in 96-well Corning Transwell plates (PET membrane, 1 µm pore size) at 75,000 cells
per well and grown in DMEM media supplemented with 10% FBS, 1% pen-strep and 1x Glutamax at
37C, 5% CO2 for 48 h to ensure monolayer formation. Stock solutions of the three CKPs 1B3, 1D3-ENI
and 1G10-ENI were diluted in Hank's Balanced Salt solution containing 25 mM HEPES, pH 7.4 and 25
µM of the monolayer integrity marker lucifer yellow. CKPs at a concentration of 50 µM were added to
the apical (donor) chamber and the CKP the apparent permeability (Papp) was determined by quantifying
the amount of CKP in the basolateral (receiver) chamber after 16 h incubation at 37C, 5% CO2. The
samples from the basolateral chamber were supplemented with the experiment analytical internal standard
(100 nM propranolol in 50% ACN:50% water with 0.1% formic acid) and then injected in a Sciex Zeno
TOF 7600 mass spectrometer using TOF/MS mode.

For the compound `CC[C@H](C)[C@H](NC(=O)[C@@H]1CCCN1C(=O)[C@H](CC(=O)O)NC(=O)[C@H](C)NC(=O)[C@@H](N)Cc1c[nH]cn1)C(=O)N[C@H]1CSSC[C@@H]2NC(=O)[C@H](Cc3ccccc3)NC(=O)[C@H](Cc3c[nH]c4ccccc34)NC(=O)[C@H](C)NC(=O)CNC(=O)[C@H](CO)NC(=O)[C@@H]3CSSC[C@@H](C(=O)NCC(=O)N4CCC[C@H]4C(=O)N[C@@H](Cc4ccc(O)cc4)C(=O)N[C@H](C(=O)NCC(N)=O)C(C)C)NC(=O)[C@H](CO)NC(=O)[C@H](Cc4c[nH]c5ccccc45)NC(=O)[C@H]([C@@H](C)O)NC(=O)[C@H](C)NC(=O)[C@H](Cc4ccc(O)cc4)NC(=O)[C@H](Cc4ccc(O)cc4)NC(=O)[C@H](CSSC[C@H](NC(=O)[C@@H]4CCCN4C(=O)[C@H](CCCCN)NC(=O)[C@H](CC(N)=O)NC1=O)C(=O)N[C@@H](CCCCN)C(=O)N[C@@H]([C@@H](C)O)C(=O)N[C@@H](Cc1c[nH]cn1)C(=O)N[C@@H](CC(=O)O)C(=O)N[C@@H](CC(=O)O)C(=O)N3)NC(=O)[C@H](C)NC(=O)[C@H](CCC(N)=O)NC2=O` [3B3] (H-HADPICNKPCKTHDDCSGAWFCQACYYATWSCGPYVG-NH2; disulfide 6-22, 10-25, 16-32), half-maximal inhibition at HTRA1^FL (IC50) required 53 nM. For the same compound, the “Viability reduction, HeLa cells, 24 h” value in the data set on HeLa cells (50 µM CKP, 24 h) is recorded as 9%. Besides, the “Viability reduction, HeLa cells, 72 h” value with HeLa cells (50 µM CKP, 72 h) is given as 13%. Also, the “Cell viability, HeLa cells” value in the data set with HeLa cells (0.6-50 µM CKP, 24 h and 72 h, at least three independent experiments) is on record as “did not appreciably affect cell viability”. Moreover, on HTRA4^PD/PDZ-Y200A, the inhibition at 10 µM stood at 57%. Further, the “Cell permeability in the MDCK cell assay” value in the data set on MDCK monolayer is recorded as “no detectable cell permeability”.

DPMFKLV-phosphonate [7mer-ABP]: the “Inhibition of HTRA1^FL at single concentration, H2-OPT (% of control)” value on HTRA1^FL (1 nM HTRA1^FL, 2 µM CKP (0.5 mM 7mer-ABP)) was “significantly inhibited”.

As usually defined, the IC50 is the concentration that inhibits the measured activity by half. The low end stands for inhibition by little substance, the high end for a need for much substance.
